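Step 1: Grow cells in 96-well plates. Step 2: Expose to compound for 48 hours at 5 concentrations. Step 3: Interpolate endpoints linearly; if unreached, use highest concentration. GI50 is the concentration that inhibits growth by half.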 The source made the active and inactive calls. Cut-off read from the data, not from the text of the source: active = GI50 up to about 1.1 µM and inactive = higher.
Experiments:
Test in all cases: DTP human tumour cell line panel, 48 h
NCI-H522 = tested on: NCI-H522
U-251 = tested on: U-251
SNB-19 = tested on: SNB-19
SK-MEL-2 = tested on: SK-MEL-2
DLD-1 = tested on: DLD-1
SF-539 = tested on: SF-539
NCI-H460 = tested on: NCI-H460
A498 = tested on: A498
M14 = tested on: M14
NCI-H23 = tested on: NCI-H23
UACC-257 = tested on: UACC-257
IGROV-1 = tested on: IGROV-1
SK-OV-3 = tested on: SK-OV-3
OVCAR-5 = tested on: OVCAR-5
MOLT-4 = tested on: MOLT-4
DMS-273 = tested on: DMS-273
DMS-114 = tested on: DMS-114
OVCAR-8 = tested on: OVCAR-8
K562 = tested on: K562
SF-268 = tested on: SF-268
M19-MEL = tested on: M19-MEL
SK-MEL-28 = tested on: SK-MEL-28
HCC 2998 = tested on: HCC 2998
CAKI-1 = tested on: CAKI-1
HT-29 = tested on: HT-29
KM12 = tested on: KM12
Malme-3M = tested on: Malme-3M
SN12C = tested on: SN12C
A549 = tested on: A549
EKVX = tested on: EKVX
SK-MEL-5 = tested on: SK-MEL-5
COLO 205 = tested on: COLO 205
HCT-116 = tested on: HCT-116
HOP-92 = tested on: HOP-92
CCRF-CEM = tested on: CCRF-CEM
SF-295 = tested on: SF-295
RXF 631 = tested on: RXF 631
RPMI-8226 = tested on: RPMI-8226
HOP-62 = tested on: HOP-62
OVCAR-4 = tested on: OVCAR-4
UO-31 = tested on: UO-31
SW-620 = tested on: SW-620
KM-20L2 = tested on: KM-20L2
786-0 = tested on: 786-0
OVCAR-3 = tested on: OVCAR-3
HCT-15 = tested on: HCT-15
TK-10 = tested on: TK-10
HOP-18 = tested on: HOP-18
ACHN = tested on: ACHN
NCI-H226 = tested on: NCI-H226
SNB-75 = tested on: SNB-75
UACC-62 = tested on: UACC-62
XF498 = tested on: XF498
LXFL 529 = tested on: LXFL 529

O=[N+]([O-])c1ccc(OCCNc2cccc3ccccc23)cc1
GI50 (NCI-H522): > 100 µM (inactive)
GI50 (U-251): 94.6 µM (inactive)
GI50 (SNB-19): > 100 µM (inactive)
GI50 (SK-MEL-2): > 100 µM (inactive)
GI50 (DLD-1): 37.9 µM (inactive)
GI50 (SF-539): > 100 µM (inactive)
GI50 (NCI-H460): 77.6 µM (inactive)
GI50 (A498): > 100 µM (inactive)
GI50 (M14): > 100 µM (inactive)
GI50 (NCI-H23): 30.6 µM (inactive)
GI50 (UACC-257): > 100 µM (inactive)
GI50 (IGROV-1): > 100 µM (inactive)
GI50 (SK-OV-3): > 100 µM (inactive)
GI50 (OVCAR-5): > 100 µM (inactive)
GI50 (MOLT-4): 20.3 µM (inactive)
GI50 (DMS-273): 46.7 µM (inactive)
GI50 (DMS-114): 52.8 µM (inactive)
GI50 (OVCAR-8): 65.3 µM (inactive)
GI50 (K562): 18.6 µM (inactive)
GI50 (SF-268): > 100 µM (inactive)
GI50 (M19-MEL): > 100 µM (inactive)
GI50 (SK-MEL-28): > 100 µM (inactive)
GI50 (HCC 2998): 64.6 µM (inactive)
GI50 (CAKI-1): > 100 µM (inactive)
GI50 (HT-29): 85.5 µM (inactive)
GI50 (KM12): > 100 µM (inactive)
GI50 (Malme-3M): > 100 µM (inactive)
GI50 (SN12C): > 100 µM (inactive)
GI50 (A549): 60.1 µM (inactive)
GI50 (EKVX): > 100 µM (inactive)
GI50 (SK-MEL-5): 30.5 µM (inactive)
GI50 (COLO 205): > 100 µM (inactive)
GI50 (HCT-116): 42.8 µM (inactive)
GI50 (HOP-92): 94.2 µM (inactive)
GI50 (CCRF-CEM): 38.2 µM (inactive)
GI50 (SF-295): > 100 µM (inactive)
GI50 (RXF 631): > 100 µM (inactive)
GI50 (RPMI-8226): 24.7 µM (inactive)
GI50 (HOP-62): > 100 µM (inactive)
GI50 (OVCAR-4): > 100 µM (inactive)
GI50 (UO-31): 92.9 µM (inactive)
GI50 (SW-620): 57.1 µM (inactive)
GI50 (KM-20L2): > 100 µM (inactive)
GI50 (786-0): > 100 µM (inactive)
GI50 (OVCAR-3): > 100 µM (inactive)
GI50 (HCT-15): 9.73 µM
GI50 (TK-10): > 100 µM (inactive)
GI50 (HOP-18): > 100 µM (inactive)
GI50 (ACHN): > 100 µM (inactive)
GI50 (NCI-H226): > 100 µM (inactive)
GI50 (SNB-75): 89.7 µM (inactive)
GI50 (UACC-62): > 100 µM (inactive)
GI50 (XF498): > 100 µM (inactive)
GI50 (LXFL 529): 33.3 µM (inactive)
